We go through eleven compounds from patent US7590493B2, “Methods for determining hepatotoxins” (priority 2000, dated 2009).

For data set [1] the following is noted: cited from earlier work.
Data set [2] is described as follows: Inventors' rat studies: liver pathology and clinical chemistry.
For data set [3] the following is noted: amitriptyline 600 mg/kg oral, PB 80 mg/kg IP, cited from earlier work; for microsomal phosphatidylcholine content: 6-24 hr.
The conditions of data set [4]: single dose, within 24 hours (Fracasso 1990); cited from earlier work.
For another data set, the system named is primary rat hepatocytes. The conditions noted are these: in vitro; cited from earlier work.
The test system of data set [5] is human hepatoma cell lines. The conditions noted are these: in vitro; cited from earlier work.
The conditions of data set [6]: in vivo; cited from earlier work.
The conditions of data set [7]: 24 hours, cited from earlier work.
The conditions of data set [8]: cited from earlier work. The source holds these as a separate data set.
The conditions of data set [9]: single oral dose 600 mg/kg, cited from earlier work.
A further data set has as its system c-fos, c-jun, c-myc. The note with it: post dose, acute administration; cited from earlier work.
The conditions of data set [10]: cited from earlier work. This is another data set of the same source.

As for `C#C[C@]1(O)CC[C@H]2[C@@H]3CCc4cc(O)ccc4[C@H]3CC[C@@]21C` [17α-ethinylestradiol], in data set [1] (after 3 days of drug administration), the bile flow entry is “decrease”. In data set [1] (rat, in vivo), the “plasma cholesterol and plasma triglyceride levels” value is “decrease”; the “plasma levels of bilirubin, bile salts, AST and ALT” value was “not changed”.
Regarding `O=C(CCN1CCN2CCCC2C1)N1c2ccccc2Sc2ccc(Cl)cc21` (stereo not shown) [AY-25329], in data set [2] (rat liver), the “mitosis rates / mitotic activity” value is listed as “increased”. Further, the glycogen levels result in data set [2] (rat liver, all rats examined) was “decreased”.
For `CCC1(c2ccccc2)C(=O)NC(=O)NC1=O` [PB, phenobarbital], the microsomal phosphatidylcholine content result in data set [3] is “increase”.
For `COc1ccc2c(c1)c(CC(=O)O)c(C)n2C(=O)c1ccc(Cl)cc1` [indomethacin], the “liver and renal microsomal enzymes, including CYP450” value in data set [4] is given as “reduce”.
As for `Nc1c2c(nc3ccccc13)CCCC2` [tacrine], the cytotoxicity result (in the data set on primary rat hepatocytes; in data set [5]) was “displayed cytotoxicity” in each case.
In the case of `S=C=Nc1cccc2ccccc12` [ANIT, alpha-naphthylisothiocyante], in data set [6], the “liver weight vs control-treated” value is reported as “significantly heavier”; the “serum ALT, gamma-glutamyl transpeptidase, total bilirubin, lipid peroxide and total bile acids” value was “significant increases”. Also, the “levels of total bilirubin, alkaline phosphatase, serum glutamic oxaloacetic transaminase and serum glutamic pyruvic transaminase” value in data set [7] (80 mg/kg oral in olive oil) is “significantly increased”. Besides, in data set [7] (80 mg/kg oral), the total bile flow result is listed as “reduced”.
Consider `CC(=O)O[C@]1(C(C)=O)CC[C@H]2[C@@H]3C=C(Cl)C4=CC(=O)[C@@H]5C[C@@H]5[C@]4(C)[C@H]3CC[C@@]21C` [CPA, cyproterone acetate], for which the “occurrence of S phase cells” value in data set [8] (rat liver) was “increased”. In addition, in data set [8] (single oral dose 100 mg CPA/kg body weight, after 16 hours), the DNA repair activity result was “continuous DNA repair activity was observed”.
For the compound `CCOC(=O)C(C)(C)Oc1ccc(Cl)cc1` [Clofibrate], the hepatocellular alterations entry in data set [2] (following early AST/ALT increases) is “dose-dependent”. Moreover, the “mitosis rates / mitotic activity” value in [2] (rat liver) is given as “increased”. The “AST and ALT levels” value in data set [2] (rat, in vivo) was “early increases”.
Regarding `CN(C)CCC=C1c2ccccc2CCc2ccccc21` [amitriptyline], in data set [3], the microsomal phosphatidylcholine content result is reported as “increase”; the “levels of GAT and PCT” value is on record as “slightly affected”; the “levels of PPH and CPT” value is reported as “significantly altered”. Besides, the “aminolevulinic acid (ALA) activity” value in [9] (12 and 24 hours) is reported as “marked increase”. Further, in data set [9], the “cytochrome P450 (CYP450) content” value is “remained the same”; the “total heme and cytochrome b5 levels” value is given as “increased”.
For the compound `ClC(Cl)(Cl)Cl` [CCl4, carbon tetrachloride], in the data set with c-fos, c-jun, c-myc, the “time of peak hepatic mRNA level, c-fos” value was 1 to 2 h; the “time of peak hepatic mRNA level, c-jun” value is 3 h; the “time of peak hepatic mRNA level, c-myc” value was 1 h. Moreover, in data set [10] (0.1, 1, 2, 3, 4 mL/kg ip, […] po, within 48 hours post dose), the “ALT and AST peak levels, increase” value was 5-10 fold. For the same compound, the “serum α-glutathione s-transferase (α-GST) levels” value in data set [10] (25 μL/kg po, as early as 2 hours) is recorded as “Significant increases”.
With `CC(O)(CS(=O)(=O)c1ccc(F)cc1)C(=O)Nc1ccc(C#N)c(C(F)(F)F)c1` (stereo not shown) [Bicalutamide], the hepatocellular hypertrophy entry in data set [2] (rat) is on record as “minor degree”. Further, in data set [2] (rat liver), the “mitosis rates / mitotic activity” value is “increase”.
